Data taken from patent US20210205329A1 (The University of North Carolina at Chapel Hill, priority 2018, published 2021).

What was measured:
[1] = test system: innately activated TLR4 signal in P rat VTA; assay: TLR4 signaling in P rat VTA after systemic neurosteroid (immunoblot, MCP-1 ELISA); format: in vivo; settings: 15 mg/kg IP, P rats
Procedure: Immunoblotting for whole VTA lysates was done as previously described (Carlson et al, 2013). Briefly, VTA micropunches (1 mm thick) were lysed with CelLytic MT (dialyzable mild detergent, bicine, and 150 mM NaCl; Sigma-Aldrich) and protease and phosphatase inhibitor cocktail according to the manufacturer's instructions. Total protein was determined by the BCA assay. The proteins (10 μg/lane) were resolved by NuPAGE™ 4-12% Bis-Tris Midi Protein Gel (Thermo Fisher, Waltham, Mass.) electrophoresis and transferred using the iBlot 2 Dry Blotting System (Thermo Fisher, Waltham, Mass.). Blots were then exposed to an antibody for β-actin for normalization. Proteins were detected with enhanced chemilumenescence (GE Healthcare, Amersham, UK). Membranes were exposed to film under non-saturating conditions. Densitometric analysis was conducted using NIH Image 1.57.
Animals. Selectively bred, but alcohol naïve Alcohol-preferring (P) rats (male, 3-4 months old; 250-550 g) (n=7-9/group) were obtained from the Alcohol Research Center, Indiana University School of Medicine, Animals were double housed in Plexiglas cages containing corn cob bedding and food and water was available ad libitum. The colony room was maintained on a normal 12 hr light-dark cycle (light onset at 0700 hr). Procedures followed National Institutes of Health Guidelines under UNC institutional Animal Care and Use Committee approved protocols at University of North Carolina School of Medicine. Rats were habituated to handling for 7 days prior to administration of 3α,5α-THP (15 mg/kg, IP), pregnenolone (75 mg/kg, IP), 3α,5α-THDOC (15 mg/kg, IP), or vehicle (45% w/v 2-hydroxypropyl-p-cyclodextrin) and returned to their home cage. Rats were sacrificed after 45 minutes and the brain was removed and frozen at −80° C. until VTA micropunches were collected from 1 mm cryostat brain sections. This time point was selected because 3α,5α-THP is rapidly metabolized in vivo (Purdy et al, 1990), but has behavioral and pharmacological activity at this time point (Crawley et al, 1986).
ELISA. Brain tissue micropunches were lysed with Cellyte MT and the extracts were assayed for protein content by the BCA procedure (Pierce) and for MCP-1 using the rat MCP-1 ELISA kit (Raybiotech—ERC-MCP-1-CL; Norcross, Ga., USA) or for fracktalkine using the rat fractalkine ELISA kit (Raybiotech—ERC-CX3CL1-CL; Norcross, Ga., USA) as per manufacturer's instructions.
Since the neurosteroids inhibited the TLR4 activation signal in cultured macrophage cells, experiments were conducted to determine whether this also occurs in the brain. Selectively bred P rats that have an innately activated TLR4 signal in the VTA (Liu J, et al. (2011). Proc Natl Acad Sci USA 108(11): 4465-4470), were administered 3α,5α-THP (15 mg/kg, IP) or pregnenolone (75 mg/kg, IP), sacrificed after 45 minutes and examined for TLR4 signaling using parallel measures. […] 3α,5α-THP administration reduced the levels of MCP-1 by 20±9% (p<0.05), TRAF6 by 19±3% (p<0.0001), and CRF by 28±9% (p<0.01), with no effect on TLR4 protein expression (FIG. 4A). Pregnenolone administration had no effect on TRAF6, CRF, or TLR4.

[2] = test system: LPS-activated TLR4 signal; assay: LPS-activated TLR4 signaling in RAW264.7 cells (immunoblotting); format: cell-based, mouse
Procedure: Cells and reagents. Mouse monocyte macrophage ceils (RAW264.7) that innately express the TLR4 receptor were obtained from American Type Culture Collection (Manassas, Va., USA). The cells were grown in Dulbecco's modified Eagle's medium (DMEM) (Gibco; Gaithersburg, Md., USA) supplemented with 10% fetal bovine serum (FBS, Gemini, West Sacramento, Calif., USA), 1% penicillin/streptomycin 100× (Gibco) at 37° C. in a 5% CO2 humidified atmosphere. The TLR4-specific ligand IPS was purchased from Sigma-Aldrich (St. Louis, Mo., USA) (Cat. #L3024) and added to the cultures (1 μg/ml) 24 hrs before cell collection.
Immunoblotting. The assay used for RAW264.7 cell lysates and co-immunoprecipitation was as previously described (Aurelian et al, 2016; June et al, 2015; Liu et al, 2011). RAW246.7 cells grown on T-75 flasks (n=5 flasks/group) were lysed with radioimmunoprecipitation (RIPA) buffer [20 mM Tris-HCl (pH 7.4), […], 1% Nonidet P-40 (Sigma, St. Louis, Mo., USA), 0.1% SDS (sodium dodecyl sulfate), 0.5% sodium deoxycholate] supplemented with protease and phosphatase inhibitor cocktails (Sigma). The total protein was determined by the bicinchoninic acid assay (BCA, Thermo Fisher Scientific, Waltham, Mass., USA, Cat. #23228 and Cat. #1859078). The proteins (100 μg/lane) were resolved by SDS-polyacrylamide gel electrophoresis using freshly prepared 16×18 cm gels and transferred to polyvinylidene fluoride membranes (PVDF, Bio-Rad, Cat. #162-0177). Blots were blocked with 5% Blotting-Grade Blocker (Bio-Rad, Cat. #1706404; for non-phosphorylated primary antibodies) or 5% BSA (for phosphorylated primary antibodies) for 2 hrs at room temperature (RT) and exposed to primary antibody overnight (4° C.), followed by horseradish peroxidase-labeled secondary antibodies for 1 h (room temp), immunoreactive bands were visualized with the Plus-ECL kit reagents (Perkin Elmer, Waltham, Mass., USA, Cat. #NEL105001EA) followed by exposure to high-performance chemiluminescence film (Hyperfilm ECL; Amersham). Quantitation was by densitometric scanning with a Bio-Rad GS-700 imaging densitometer. Blots were stripped and re-probed with different primary antibodies 3-5 times. Each densitometric measurement was divided by the corresponding β-Actin densitometric measurement and the results [n=5/group] are expressed as the mean β-Actin-adjusted densitometric units±SEM.
To examine whether the neurosteroids inhibit the LPS-activated TLR4 signal, RAW264.7 cells were treated with IPS (1 μg/mi; 24 hrs) in the absence or presence of 3α,5α-THP (0.5 μM, 1 μM) or pregnenolone (0.5 μM, 1 μM), and ceil extracts were assayed for expression of MyD88-dependent pathway members, by immunoblotting with antibodies to pTAK1, monocyte chemotactic protein (MCP-1), TRAF6, TLR4, and transcription factor NFκB p50 (Chattopadhyay S, et al. (2014). Cytokine Growth Factor Rev 25(5): 533-541; Irie T, et al. (2000). FEBS Lett 467(2-3): […]; Lu Y C, et al. (2008). Cytokine 42(2): 145-151).
Because the neurosteroids had relatively little effect on NFκB p50, the possibility that inhibition of other transcription factors and proinflammatory responses may be involved was considered. RAW246.7 ceils were treated as described above and protein extracts were immunoblotted with antibodies to phospho-NF-κB p65, pCREB, the proinflammatory cytokine tumor necrosis factor alpha (TNFα), and high mobility group box-1 (HMGB1), a highly conserved non-histone chromosomal protein, the translocation of which from the intra- to extra-cellular environment is a critical event in inflammatory responses. Indeed, HMGB1 is currently recognized as a cytokine secreted from activated macrophages and other inflammatory cells during the innate immune response and if is believed to function as a TLR4 ligand. […]

[3] = test system: TLR7 signal; assay: Imiquimod-activated TLR7 signaling in RAW264.7 cells; format: cell-based, mouse; settings: imiquimod 1 μg/ml for 24 hours, RAW264.7
Procedure: Because multiple TLRs signal through MD-2, […] and MyD-88, the specificity of the neurosteroid 3α,5α-THP on TLR2, TLRS and TLR7 signal activation was examined in RAW264.7 ceils (FIG. 7). Pam3Cys (10 μg/ml) activated TLR2 signaling, evidenced by increases in pCREB, pERK1/2, TRAF6 and pATF-2, that were sustained for 24 hrs and inhibited by 3α,5α-THP (1 μM) (50-60% compared to vehicle).

[4] = test system: TLR3 signal; assay: Poly(I:C)-activated TLR3 signaling in RAW264.7 cells; format: cell-based, mouse; settings: Poly-IC 25 μg/ml; 24 hrs; RAW264.7
[5] = 0.5 μM or 1 μM (concentration not assigned), RAW264.7
[6] = 1.0 μM, LPS 1 μg/ml, 24 hrs, RAW264.7

C[C@]12CC[C@@H](O)C[C@@H]1CC[C@@H]1[C@@H]2CC[C@]2(C)[C@@H](C(=O)CO)CC[C@@H]12 [3α,5α-THDOC, (3α,5α)3,21-dihydroxypregnan-20-one]
effect on TLR4 protein expression in VTA ([1]; 45 minutes): No effect
increase of CRF levels in VTA [1]: 39±16%
increase of TRAF6 levels in VTA [1]: 32±12%
effect on MCP-1 expression in VTA ([1]; ELISA): no effect
inhibition of LPS-activated MCP-1 [2, 5]: approximately 90%
inhibition of LPS-activated NFκB p50 [2, 5]: 30-40%
effect on TLR4 expression ([2]; 0.5 μM or 1 μM, LPS-treated RAW264.7, 24 hrs): did not affect
enhancement of LPS-induced TRAF6 ([2]; 0.5 μM, LPS 1 μg/ml, 24 hrs, RAW264.7): 51.6±8.3%
enhancement of LPS-induced TRAF6 [2, 6]: 16.8±5.7%
increase of LPS-induced pTAK1 [2, 6]: 2 fold

CC(C)Cn1cnc2c(N)nc3ccccc3c21 [imiquimod]
increase in pIRF7 [3]: 30%

Poly-IC
increase in IP-10 (CXCL10) expression [4]: 90%
